From ChEMBL document CHEMBL5331072, “Development of potent and selective FAAH inhibitors with improved drug-like properties as potential tools to treat neuroinflammatory conditions” (Eur J Med Chem, 2023)
In brackets after ≈: the same amount, converted by molar mass. Activity calls are given as the source filed them. The rule behind the calls is not given here.

Legend:
[1] = Chemical stability of the compound at pH 3 measured for 24 hrs by HPLC analysis; type: physicochemical; details: buffer, read-out: Stability
[2] = Neurotoxicity against Wistar rat Hippocampus assessed as cell survival at 0.3 to 100 nM measured for 96 hrs by densitometric analysis; type: toxicity, tissue-based; details: 0.1 µM, dose 0.3-100 nM
[3] = Cardiotoxicity in Langendorff-perfused Wistar rat heart assessed as effect on QTc interval time at 10 uM by ECG analysis (Rvb =72.1+/-1.4 milliseconds); type: toxicity, tissue-based
Monoglyceride lipase = molecular target: T1, Monoglyceride lipase (Homo sapiens, UniProt Q99685); assay: Inhibition of human recombinant MAGL using 7-hydroxycoumarinyl arachidonate as substrate preincubated for 30 mins followed by substrate addition and measured after 30 mins by multimode plate reader analysis
T1 sequence (Q99685 whole entry): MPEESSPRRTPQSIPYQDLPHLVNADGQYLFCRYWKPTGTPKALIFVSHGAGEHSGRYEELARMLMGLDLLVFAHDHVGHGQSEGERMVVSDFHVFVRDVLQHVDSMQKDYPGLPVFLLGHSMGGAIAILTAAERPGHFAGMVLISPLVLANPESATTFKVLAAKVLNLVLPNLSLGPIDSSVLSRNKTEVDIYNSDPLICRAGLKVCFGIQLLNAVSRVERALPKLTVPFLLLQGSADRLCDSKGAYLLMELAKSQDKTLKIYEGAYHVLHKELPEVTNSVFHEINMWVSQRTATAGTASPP

[4] = Cardiotoxicity in Langendorff-perfused Wistar rat heart assessed as effect on heart rate at 10 uM by ECG analysis (reference value: 263.5+/-8.2 bpm); type: toxicity, tissue-based
[5] = Cardiotoxicity in Langendorff-perfused Wistar rat heart assessed as effect on PQ interval time at 1 uM by ECG analysis (Rvb =40.8+/-2.3 milliseconds); type: toxicity, tissue-based
[6] = Cardiotoxicity in Langendorff-perfused Wistar rat heart assessed as effect on QRS interval time at 1 uM by ECG analysis (Rvb =13.6+/-0.7 milliseconds); type: toxicity, tissue-based
[7] = Cytotoxicity against mouse NIH3T3 cells assessed as inhibition of cell growth measured for 24 hrs by neutral red uptake assay; type: toxicity, cell-based
[8] = Cardiotoxicity in Langendorff-perfused Wistar rat heart assessed as effect on QRS interval time at 0.3 uM by ECG analysis (Rvb =13.6+/-0.7 milliseconds); type: toxicity, tissue-based
Hippocampus [9] = assay: Neuroprotective activity against Wistar rat Hippocampus assessed as reduction in LPS/IFN-gamma induced PI uptake in CA1 region at 3 to 1000 nM measured for 96 hrs; type: functional, tissue-based; details: dose 3-1000 nM
1321N1 [10] = assay: Cytotoxicity against human 1321N1 cells assessed as inhibition of cell growth at 100 nM measured for 24 hrs by MTT assay; type: functional; design: scale not given: the % may be the effect or the level left
[11] = Cardiotoxicity in Langendorff-perfused Wistar rat heart assessed as effect on QRS interval time at 10 uM by ECG analysis (Rvb =13.6+/-0.7 milliseconds); type: toxicity, tissue-based
[12] = Cardiotoxicity in Langendorff-perfused Wistar rat heart assessed as effect on QTc interval time at 30 uM by ECG analysis (Rvb =72.1+/-1.4 milliseconds); type: toxicity, tissue-based
[13] = Solubility of compound at pH 3 measured for 24 hrs; type: physicochemical; details: buffer
1321N1 [14] = assay: Cytotoxicity against human 1321N1 cells assessed as inhibition of cell growth at 10 uM measured for 24 hrs by MTT assay; type: functional; design: scale not given: the % may be the effect or the level left
[15] = Cardiotoxicity in Langendorff-perfused Wistar rat heart assessed as effect on QTc interval time at 0.3 uM by ECG analysis (Rvb =72.1+/-1.4 milliseconds); type: toxicity, tissue-based
[16] = Cardiotoxicity in Langendorff-perfused Wistar rat heart assessed as effect on QRS interval time at 30 uM by ECG analysis (Rvb =13.6+/-0.7 milliseconds); type: toxicity, tissue-based
[17] = Cardiotoxicity in Langendorff-perfused Wistar rat heart assessed as effect on PQ interval time at 10 uM by ECG analysis (Rvb =40.8+/-2.3 milliseconds); type: toxicity, tissue-based
[18] = Cardiotoxicity in Langendorff-perfused Wistar rat heart assessed as effect on RR time at 1 uM by ECG analysis (reference value: 230+/-8.7 milliseconds); type: toxicity, tissue-based
[19] = Cardiotoxicity in Langendorff-perfused Wistar rat heart assessed as effect on RR time at 0.3 uM by ECG analysis (reference value: 230+/-8.7 milliseconds); type: toxicity, tissue-based
[20] = Cardiotoxicity in Langendorff-perfused Wistar rat heart assessed as effect on heart rate at 30 uM by ECG analysis (reference value: 263.5+/-8.2 bpm); type: toxicity, tissue-based
[21] = Cardiotoxicity in Langendorff-perfused Wistar rat heart assessed as effect on RR time at 30 uM by ECG analysis (reference value: 230+/-8.7 milliseconds); type: toxicity, tissue-based
1321N1 [22] = assay: Antiinflammatory activity against human 1321N1 cells assessed as reduction in TBHP-induced ROS production at 1 uM incubated for 24 hrs by CellROX green reagent based flow cytometry assay; type: functional, cell-based
[23] = Cardiotoxicity in Langendorff-perfused Wistar rat heart assessed as effect on RR time at 10 uM by ECG analysis (reference value: 230+/-8.7 milliseconds); type: toxicity, tissue-based
Hippocampus [24] = assay: Neuroprotective activity against Wistar rat Hippocampus assessed as reduction in LPS/IFN-gamma induced PI uptake in CA1 region at 30 to 100 nM measured for 96 hrs; type: functional, tissue-based; details: dose 30-100 nM
[25] = Cardiotoxicity in Langendorff-perfused Wistar rat heart assessed as effect on PQ interval time at 0.3 uM by ECG analysis (Rvb =40.8+/-2.3 milliseconds); type: toxicity, tissue-based
[26] = Cardiotoxicity in Langendorff-perfused Wistar rat heart assessed as effect on heart rate at 0.3 uM by ECG analysis (reference value: 263.5+/-8.2 bpm); type: toxicity, tissue-based
[27] = Cardiotoxicity in Langendorff-perfused Wistar rat heart assessed as effect on heart rate at 1 uM by ECG analysis (reference value: 263.5+/-8.2 bpm); type: toxicity, tissue-based
1321N1 [28] = assay: Cytotoxicity against human 1321N1 cells assessed as inhibition of cell growth at 30 uM measured for 24 hrs by MTT assay; type: functional; design: scale not given: the % may be the effect or the level left
[29] = Cardiotoxicity in Langendorff-perfused Wistar rat heart assessed as effect on PQ interval time at 30 uM by ECG analysis (Rvb =40.8+/-2.3 milliseconds); type: toxicity, tissue-based
1321N1 [30] = assay: Cytotoxicity against human 1321N1 cells assessed as inhibition of cell growth at 10 nM measured for 24 hrs by MTT assay; type: functional; design: scale not given: the % may be the effect or the level left
[31] = Solubility of compound at pH 7.4 measured for 24 hrs; type: physicochemical; details: buffer
1321N1 [32] = assay: Cytotoxicity against human 1321N1 cells assessed as inhibition of cell growth at 1 uM measured for 24 hrs by MTT assay; type: functional; design: scale not given: the % may be the effect or the level left
1321N1 [33] = assay: Antiinflammatory activity against human 1321N1 cells assessed as reduction in TBHP-induced ROS production at 100 nM incubated for 24 hrs by CellROX green reagent based flow cytometry assay; type: functional, cell-based
[34] = Cardiotoxicity in Langendorff-perfused Wistar rat heart assessed as effect on QTc interval time at 1 uM by ECG analysis (Rvb =72.1+/-1.4 milliseconds); type: toxicity, tissue-based
[35] = molecular target: T2, Fatty-acid amide hydrolase 1 (Homo sapiens, UniProt O00519); assay: Inhibition of human recombinant FAAH using AMC-AA as substrate preincubated for 30 mins followed by substrate addition and measured after 30 mins by multimode plate reader analysis
T2 sequence (O00519 whole entry): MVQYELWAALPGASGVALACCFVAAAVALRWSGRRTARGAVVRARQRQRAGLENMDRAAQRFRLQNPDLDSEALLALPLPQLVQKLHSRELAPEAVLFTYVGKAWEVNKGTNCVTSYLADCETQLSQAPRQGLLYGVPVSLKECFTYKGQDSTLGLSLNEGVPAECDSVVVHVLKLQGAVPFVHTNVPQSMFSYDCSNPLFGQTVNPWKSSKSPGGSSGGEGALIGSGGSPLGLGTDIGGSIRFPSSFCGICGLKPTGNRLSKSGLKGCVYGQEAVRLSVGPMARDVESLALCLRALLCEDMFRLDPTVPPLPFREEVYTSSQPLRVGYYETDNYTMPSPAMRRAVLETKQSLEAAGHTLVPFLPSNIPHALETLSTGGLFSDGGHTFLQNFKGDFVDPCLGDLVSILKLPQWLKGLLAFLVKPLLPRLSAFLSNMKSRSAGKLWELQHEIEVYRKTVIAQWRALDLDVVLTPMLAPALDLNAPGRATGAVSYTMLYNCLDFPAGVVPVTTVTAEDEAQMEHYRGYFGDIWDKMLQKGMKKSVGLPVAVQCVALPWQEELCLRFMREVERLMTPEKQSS

[36] = Chemical stability of the compound at pH 7.4 measured for 24 hrs by HPLC analysis; type: physicochemical; details: buffer, read-out: Stability

**Q.** For `NC(=O)c1ccn(-c2cccc(OC(=O)N3CCN(CCCc4ccccc4)CC3)c2)c1`, which remaining at 24 h [1] is on record?
**A.** The remaining at 24 h was > 99%.

**Q.** What about the Activity [2] of the same compound?
**A.** The Activity was “Non-Toxic”.

**Q.** What about the Time [3] of the same compound?
**A.** Its Time is 71 ms.

**Q.** And the IC50 (Monoglyceride lipase)?
**A.** Its IC50 is > 10 µM.

**Q.** What about the Activity [4] of the same compound?
**A.** Its Activity is 263.8 bpm.

**Q.** What about the Time [5] of the same compound?
**A.** The Time was 40.6 ms.

**Q.** And the Time [6]?
**A.** Its Time is 13.8 ms.

**Q.** And the IC50 at 24 h [7]?
**A.** The IC50 at 24 h was 46 µM.

**Q.** And the Time [8]?
**A.** Its Time is 13.8 ms.

**Q.** What about the Activity (Hippocampus [9]) of the same compound?
**A.** Its Activity is “Active”.

**Q.** What about the Activity (1321N1 [10]) of the same compound?
**A.** Its Activity is 99.5%.

**Q.** What about the Time [11] of the same compound?
**A.** The Time was 14 ms.

**Q.** What about the Time [12] of the same compound?
**A.** Its Time is 73.5 ms.

**Q.** And the solubility at 24 h [13]?
**A.** Its solubility at 24 h is 228 µM (≈ 98.6 µg/mL).

**Q.** What about the Activity (1321N1 [14]) of the same compound?
**A.** The Activity was 100%.

**Q.** And the Time [15]?
**A.** Its Time is 70.6 ms.

**Q.** And the Time [16]?
**A.** Its Time is 14.6 ms.

**Q.** What about the Time [17] of the same compound?
**A.** Its Time is 41.2 ms.

**Q.** And the Time [18]?
**A.** Its Time is 220.2 ms.

**Q.** And the Time [19]?
**A.** The Time was 223.8 ms.

**Q.** And the Activity [20]?
**A.** The Activity was 190.2 bpm.

**Q.** And the Time [21]?
**A.** Its Time is 286.4 ms.

**Q.** And the Activity (1321N1 [22])?
**A.** The Activity was “Active”.

**Q.** And the Time [23]?
**A.** Its Time is 229.8 ms.

**Q.** And the Activity (Hippocampus [24])?
**A.** The Activity was “Active”.

**Q.** And the Time [25]?
**A.** Its Time is 39.2 ms.

**Q.** And the Activity [26]?
**A.** The Activity was 270 bpm.

**Q.** What about the Activity [27] of the same compound?
**A.** Its Activity is 273 bpm.

**Q.** What about the Activity (1321N1 [28]) of the same compound?
**A.** Its Activity is 101.5%.

**Q.** And the Time [29]?
**A.** Its Time is 54.8 ms.

**Q.** What about the Activity (1321N1 [30]) of the same compound?
**A.** The Activity was 100.5%.

**Q.** What about the solubility at 24 h [31] of the same compound?
**A.** Its solubility at 24 h is 42 µM (≈ 18.2 µg/mL).

**Q.** And the Activity (1321N1 [32])?
**A.** The Activity was 100.3%.

**Q.** What about the Activity (1321N1 [33]) of the same compound?
**A.** The Activity was “Active”.

**Q.** What about the Time [34] of the same compound?
**A.** Its Time is 70.6 ms.

**Q.** And the IC50 [35]?
**A.** Its IC50 is 0.0101 µM.

**Q.** And the remaining at 24 h [36]?
**A.** Its remaining at 24 h is > 99%.
